One data set can be described thus: in vitro. The following applies: human, pH 7.4, n = 3.
Data set [1] is described as follows: Equilibrium dialysis binding to HEK293 cell homogenate (fraction unbound). Format: in vitro ADME. The following applies: human, pH 7.4; fraction unbound in HEK293 cell homogenate, 10 × 10^6 cells/mL, 0.1 μM, 4 h, 37 °C; read-out: fu,hom. The method, then:
(§1) The unbound fraction of a selected series of PROTACs was determined through equilibrium dialysis against the cell homogenate. HEK293 cells (ATCC, Manassas, VA) were grown in Dulbecco’s modified Eagle’s medium (DMEM) supplemented with 10% fetal bovine serum (FBS) at 37 °C, 95% relative humidity, and 5% CO2. Cell pellets were harvested using 0.05% trypsin and centrifuged at 260g for 5 min. The cells were resuspended in Dulbecco’s phosphate buffer (DPBS), counted using a Luna II cell counter (Logos Biosystems, Anyang, South Korea) and centrifuged at 260g. The supernatant was discarded, and cell pellets were stored at −80 °C prior to cell homogenate preparation. On the day of the experiment, cell pellets were thawed and resuspended in Hank’s balanced salt solution (HBSS) buffered with 20 mM HEPES (pH 7.4) to a concentration of 10 × 10^6 cells/mL. The cell suspension was homogenized using ultrasonication for 10 s at 20% intensity while kept on ice.
(§2) Compound stability was assessed by adding the compound-spiked cell homogenate to an empty well in the dialysis cassette. At the end of the experiment, these concentrations were compared to identical control samples stored at 4 °C. Mass balance was calculated at the end of each experiment. Further, in all wells, two control compounds (atorvastatin and lopinavir) were included to ensure that the assay plate was functional. All compounds were tested in triplicate in one experiment. Compound 2 was only detected on the cell homogenate side, and thus, the concentration on the buffer side was set to half of the lower limit of quantification to allow calculation of an approximate cell homogenate binding.
(§3) Final samples were matrix matched by taking 1 part sample and 1 part blank cell homogenate or buffer. Proteins were precipitated using 1 part matrix matched sample and 3 parts acetonitrile supplemented with 0.3% formic acid (FA) and 5 nM verapamil (internal standard), and this was diluted 1:1 with Milli-Q prior to centrifugation at 2500g for 20 min. Compound concentrations in the supernatant were quantified using a reversed phase system with a Waters Acquity UPLC HSS T3 column (50 × 2.1 mm, 1.8 μm) in an Aquity UPLC connected to a Xevo TQ-XS mass spectrometer (Waters Corp., Milford, MA). The chromatographic run was done using solvent A (0.1% FA in Milli-Q) and solvent B (0.1% FA in acetonitrile Optima LC/MS grade (Fisher Scientific)) with isocratic conditions between 0 and 0.3 min (99.8% solvent A and 0.2% solvent B), a linear gradient between 0.3 and 1.3 min (from 0.2% to 95% solvent B), isocratic conditions between 1.3 and 1.8 min (95% solvent B), and equilibration back to start conditions between 1.8 and 2.3 min. Mass transitions, cone voltages, and collision energies can be found in Table S4.
On the technique in general: In equilibrium dialysis only unbound substance equilibrates across the membrane.

The next data set concerns HEK293 cell homogenate. The description is as above. As to conditions: for cell homogenate binding (bound-to-unbound concentration ratio) compared with matched compound: Figure 6G, 11 vs 9, 8 vs 14, 9 vs 16; for fold higher bound-to-unbound concentration ratio than compound 9: comparator compound 9. Type of data set: in vitro ADME. How it is done:
as §1, §2, §3

Data set [2] can be described thus: Caco-2 A-B passive permeability with preincubation, transporter-inhibited. Type of data set: in vitro ADME. The following applies: human, Caco-2, with 50 μM quinidine, 30 μM benzbromarone, 20 μM sulfasalazine; Figure 3A grouping; read-out: Passive Caco-2 cell permeability group (high, moderate or low). The method, then:
(§4) Transepithelial transport of the compounds through a Caco-2 monolayer (ATCC, HTB-37) was determined in 14–18 days old monolayers in Costar 24-well cell culture cluster plates (polycarbonate membrane, 0.4 μm pore size). Chamber volumes were 200 and 800 μL on the apical and basolateral sides of the cell monolayers, respectively, and all incubations were performed with prewarmed buffers in an orbital shaking incubator at 480 rpm and 37 °C. Prior to the assay, cells were washed with HBSS supplemented with 25 mM HEPES (HBSS-HEPES), pH 7.4, to remove the culture medium. After 15 min of equilibration, the transepithelial electrical resistance (TEER) was determined to assess acceptance of the cell plates into the assay. A second measurement and a lucifer yellow leakage determination was carried out after performing all the transport experiments to monitor integrity of the cell monolayers throughout the study.
(§5) Before the permeability study, to minimize nonspecific binding of PROTACs to the cells and plates, the cells were preincubated with 10 μM compound solution on the apical (donor) side for 1 h, analogous to Muschong et al. Then, cells were washed twice with HBSS-MES pH 6.5 containing 1% BSA. Then, permeability in the absorptive direction (A–B, apical-to-basolateral) was studied over 120 min at a 10 μM test compound concentration. The compound solutions were freshly prepared from DMSO stock solutions diluted into HBSS supplemented with 25 mM MES, pH 6.5, containing efflux inhibitors (50 μM quinidine, 30 μM benzbromarone, and 20 μM sulfasalazine); the final solvent concentration was always 0.5%.
(§6) Samples from the donor side (10 μL) were drawn immediately after the addition of the test compound and after 45 and 120 min. The donor samples were diluted 1:10 in HBSS. From the receiver compartment, an amount of 100 μL was withdrawn after 45 and 120 min and replaced with fresh HBSS-HEPES, pH 7.4.
(§7) Upon completion of the study, all samples were quenched with 300 μL of acetonitrile and analyzed subsequently using UPLC/MS/MS. The permeability was determined as the appearance rate of the compound on the receiver side, in relation to donor concentration, according to eq 4 Papp=dQ/[(dt)(T)]×A/D where dQ/[(dt)(T)] is the slope of the permeation profile across the Caco-2 cell monolayers, A is the surface area of the Transwell insert (0.33 cm^2), and D is the concentration on the donor side. Following the permeability experiments, recovery from the donor and receiver compartments was calculated using eq 5 recovery(%)(0−120min)=CR120×VR+CR45×0.1+CD45×0.01+CD120×VD/D0×VD×100
On the technique in general: Caco-2 monolayers are a common model of the intestinal barrier.

The next data set has as its system Caco-2 monolayer. The description is as above. Type of data set: in vitro ADME. The following applies: recovery from donor and receiver compartments, 0-120 min. How it is done:
as §4, §5, §6, §7

Where only a bound is given, the exact number is not on record here.

Method for in vitro: Binding to the cell homogenate was determined at 0.1 μM for all compounds. A Rapid Equilibrium Dialysis device (Thermo Fisher, Waltham, Massachusetts) was used to dialyze the samples by adding 200 μL of the compound-spiked cell homogenate to one chamber and 350 μL of HBSS/HEPES to the other chamber. The cassette was incubated on an Eppendorf ThermoMixer C (Hamburg, Germany) at 900 rpm for 4 h at 37 °C.

Take `Cc1sc2c(c1C)C(c1ccc(Cl)cc1)=N[C@@H](CC(=O)NC[C@@H]1CCC[C@H](CNc3cccc4c3C(=O)N(C3CCC(=O)NC3=O)C4=O)C1)c1nnc(C)n1-2` (mixture of isomers) [Compound 12, 2-((6S)-4-(4-Chlorophenyl)-2,3,9-trimethyl-6H-thieno[3,2-f][1,2,4]triazolo[4,3-a][1,4]diazepin-6-yl)-N-(((1RS,3SR)-3-(((2-(2,6-dioxopiperidin-3-yl)-1,3-dioxoisoindolin-4-yl)amino)methyl)cyclohexyl)methyl)acetamide]: the fraction unbound at 4 h, 0.1 μM in “in vitro” (HEK293 cell homogenate) is 0.007.
For `COc1cc2c(Oc3ccc(NC(=O)C4(C(=O)Nc5ccc(F)cc5)CC4)cc3F)ccnc2cc1OCCCCOCCCCOCC(=O)NC(C(=O)N1CC(O)CC1C(=O)NCc1ccc(-c2scnc2C)cc1)C(C)(C)C` (stereo not drawn) [Compound 1], the fraction unbound at 4 h, 0.1 μM in data set [1] came out at 0.011. Further, the “fu,hom mass balance” value with HEK293 cell homogenate (equilibrium dialysis, HEK293 cell homogenate, 0.1 μM) is recorded as 118%. In addition, the Papp A→B at 120 min, 10 μM in data set [2] is less than 0.5 ×10⁻⁶ cm/s. For the same compound, the “Papp Recovery (%) (0-120 min)” value with Caco-2 monolayer is 39%.
Regarding `Cc1ncsc1-c1ccc(CNC(=O)[C@H]2C[C@H](O)CN2C(=O)[C@@H](NC(=O)COCCOCCOCCNC(=O)C[C@@H]2N=C(c3ccc(Cl)cc3)c3c(sc(C)c3C)-n3c(C)nnc32)C(C)(C)C)cc1` [Compound 6], in data set [2], the Papp A→B at 120 min, 10 μM lay within 0.5 to 10 ×10⁻⁶ cm/s. The fraction unbound at 4 h, 0.1 μM in the data set “in vitro” (HEK293 cell homogenate) was found to be 0.242.
The matching figures for `COc1cc(-c2cn(C)c(=O)c3cnccc23)cc(OC)c1CN(C)CC(=O)NCCCCCCCCNc1cccc2c1C(=O)N(C1CCC(=O)NC1=O)C2=O` (stereo not drawn) [Compound 7]: greater than 10 ×10⁻⁶ cm/s and 0.19.
Take `Cc1sc2c(c1C)C(c1ccc(Cl)cc1)=N[C@@H](CC(=O)NCCCCCCCCNC(=O)COc1cccc3c1C(=O)N(C1CCC(=O)NC1=O)C3=O)c1nnc(C)n1-2` (stereo partly drawn) [Compound 8]: the “cell homogenate binding (bound-to-unbound concentration ratio) compared with matched compound” value with HEK293 cell homogenate was “higher experimental binding than 14”. Also, the “fold higher bound-to-unbound concentration ratio than compound 9” value in the data set with HEK293 cell homogenate (HEK293 cell homogenate) was found to be 4.6 fold. Besides, the Papp A→B at 120 min, 10 μM in data set [2] was greater than 10 ×10⁻⁶ cm/s. The fraction unbound at 4 h, 0.1 μM in “in vitro” (HEK293 cell homogenate) turned out to be 0.133.
As to `Cc1sc2c(c1C)C(c1ccc(Cl)cc1)=N[C@@H](CC(=O)NCCCCNC(=O)COc1cccc3c1C(=O)N(C1CCC(=O)NC1=O)C3=O)c1nnc(C)n1-2` (stereo partly drawn) [Compound 9], the “cell homogenate binding (bound-to-unbound concentration ratio) compared with matched compound” value with HEK293 cell homogenate is “higher cell homogenate binding than 16”. For the same compound, the Papp A→B at 120 min, 10 μM in data set [2] is less than 0.5 ×10⁻⁶ cm/s. Moreover, the fraction unbound at 4 h, 0.1 μM in “in vitro” (HEK293 cell homogenate) is 0.411.
For `COc1cc(-c2cn(C)c(=O)c3cnccc23)cc(OC)c1CN(C)CC(=O)NCCOCCOCCNc1cccc2c1C(=O)N(C1CCC(=O)NC1=O)C2=O` (stereo not drawn) [Compound 10], the “fold lower bound-to-unbound concentration ratio (membrane binding) than compound 7” value with HEK293 cell homogenate (HEK293 cell homogenate, comparator compound 7) worked out at 5.3 fold. Further, the Papp A→B at 120 min, 10 μM in data set [2] is less than 0.5 ×10⁻⁶ cm/s. In addition, in “in vitro” (tissue homogenate), the fraction unbound at 4 h, 0.1 μM stood at 0.557.
As for `Cc1ncsc1-c1ccc(CNC(=O)[C@@H]2C[C@@H](O)CN2C(=O)[C@@H](NC(=O)CCCCNC(=O)C[C@@H]2N=C(c3ccc(Cl)cc3)c3c(sc(C)c3C)-n3c(C)nnc32)C(C)(C)C)cc1` [Compound 11, (2S,4R)-1-((2S)-2-(5-(2-((6S)-4-(4-Chlorophenyl)-2,3,9-trimethyl-6H-thieno[3,2-f][1,2,4]triazolo[4,3-a][1,4]diazepin-6-yl)acetamido)pentanamido)-3,3-dimethylbutanoyl)-4-hydroxy-N-(4-(4-methylthiazol-5-yl)benzyl)pyrrolidine-2-carboxamide], the “cell homogenate binding (bound-to-unbound concentration ratio) compared with matched compound” value in the data set with HEK293 cell homogenate is recorded as “higher cell homogenate binding than the CRBN-binding 9”. The “fold higher bound-to-unbound concentration ratio than compound 9” value in the data set on HEK293 cell homogenate (HEK293 cell homogenate) turned out to be 3 fold. Also, the fraction unbound at 4 h, 0.1 μM in “in vitro” (HEK293 cell homogenate) was found to be 0.139.
The compound `Cc1sc2c(c1C)C(c1ccc(Cl)cc1)=N[C@@H](CC(=O)NCCCNc1cccc3c1C(=O)N(C1CCC(=O)NC1=O)C3=O)c1nnc(C)n1-2` (stereo partly drawn) [Compound 13, 2-((6S)-4-(4-Chlorophenyl)-2,3,9-trimethyl-6H-thieno[3,2-f][1,2,4]triazolo[4,3-a][1,4]diazepin-6-yl)-N-(3-((2-(2,6-dioxopiperidin-3-yl)-1,3-dioxoisoindolin-4-yl)amino)propyl)acetamide] yielded a fraction unbound at 4 h, 0.1 μM in the data set “in vitro” (tissue homogenate) of 0.228.
In “in vitro” (HEK293 cell homogenate), `Cc1sc2c(c1C)C(c1ccc(Cl)cc1)=N[C@@H](CC(=O)NCCOCCOCCNC(=O)COc1cccc3c1C(=O)N(C1CCC(=O)NC1=O)C3=O)c1nnc(C)n1-2` (stereo partly drawn) [Compound 14, 2-((6S)-4-(4-Chlorophenyl)-2,3,9-trimethyl-6H-thieno[3,2-f][1,2,4]triazolo[4,3-a][1,4]diazepin-6-yl)-N-(2-(2-(2-(2-((2-(2,6-dioxopiperidin-3-yl)-1,3-dioxoisoindolin-4-yl)oxy)acetamido)ethoxy)ethoxy)ethyl)acetamide] came in with a fraction unbound at 4 h, 0.1 μM of 0.432.
`Cc1sc2c(c1C)C(c1ccc(Cl)cc1)=N[C@@H](CC(=O)N1CCN(c3cccc4c3C(=O)N(C3CCC(=O)NC3=O)C4=O)CC1)c1nnc(C)n1-2` (stereo partly drawn) [Compound 15, 4-(4-(2-((6S)-4-(4-Chlorophenyl)-2,3,9-trimethyl-6H-thieno[3,2-f][1,2,4]triazolo[4,3-a][1,4]diazepin-6-yl)acetyl)piperazin-1-yl)-2-(2,6-dioxopiperidin-3-yl)isoindoline-1,3-dione] yielded a fraction unbound at 4 h, 0.1 μM in “in vitro” (HEK293 cell homogenate) of 0.182.
Compound `Cc1sc2c(c1C)C(c1ccc(Cl)cc1)=N[C@@H](CC(=O)NCCOCCNC(=O)COc1cccc3c1C(=O)N(C1CCC(=O)NC1=O)C3=O)c1nnc(C)n1-2` (stereo partly drawn) [Compound 16, 2-((6S)-4-(4-Chlorophenyl)-2,3,9-trimethyl-6H-thieno[3,2-f][1,2,4]triazolo[4,3-a][1,4]diazepin-6-yl)-N-(2-(2-(2-((2-(2,6-dioxopiperidin-3-yl)-1,3-dioxoisoindolin-4-yl)oxy)acetamido)ethoxy)ethyl)acetamide] registered a fraction unbound at 4 h, 0.1 μM in the data set “in vitro” (HEK293 cell homogenate) of 0.5.
The compound `Cc1sc2c(c1C)C(c1ccc(Cl)cc1)=N[C@@H](CC(=O)N1CCC(Oc3cccc4c3C(=O)N(C3CCC(=O)NC3=O)C4=O)C1)c1nnc(C)n1-2` (stereo partly drawn) [Compound 17, 4-((1-(2-((6S)-4-(4-Chlorophenyl)-2,3,9-trimethyl-6H-thieno[3,2-f][1,2,4]triazolo[4,3-a][1,4]diazepin-6-yl)acetyl)pyrrolidin-3-yl)oxy)-2-(2,6-dioxopiperidin-3-yl)isoindoline-1,3-dione] returned a fraction unbound at 4 h, 0.1 μM in “in vitro” (HEK293 cell homogenate) of 0.357.

(Values after publication PMC12750995, “Conformational Dynamics in the Cell Membrane Interactions of Bispecific Targeted Degrader Therapeutics” (Journal of Medicinal Chemistry, 2025).)
